Experimental data as given in patent EP1891948A1, “Treatment of neurological and neuropsychological disorders” (Probiodrug AG, priority 2000, dated 2002).

System: WistarF/Han (WF) rats
Assay: Social interaction (SI) test with Y1R antagonist pre-treatment (Example 4)
Format: in vivo
Conditions: i.c.v., isoleucyl thiazolidine 50nmol and/or NPY 0.8nmol, without antagonist; Fig. 10
Procedure: Animals. Male WistarF/Han (WF) rats (Central Animal Laboratory, Hannover Medical School, Hannover, Germany, see http://www.mh-hannover.de/institut/tierlabor/wf.htm for details), weighing 330±31 g±SD, were housed in a sound-proof, temperature controlled (24.0±0.5°C) room under specific pathogen free conditions with a 12/12h dark/light cycle (lights on at 07.00 with illumination level of 80 Lux). Food (Altromin lab chow pellets) and tap water were available ad libitum. Under ketamine/xylasine (100/5 mg/kg, i.p.) anesthesia, the rats were fixed in a Kopf stereotaxic frame and implanted with cannulae (Plastic One, Inc., Roanoke, VA, USA) above the lateral ventricle. All research and animal care procedures were approved by the Lower Saxony district government (Hannover, Germany) and followed principles described in the European Community's Council Directive of 24 November 1986 (86/609/EEC).
Surgery and i.c.v. application. […]
Animals were randomly divided into eight experimental groups (n=6-8/group), which completed one SI test of anxiety: (1) aCSF+aCSF+aCSF; (2) BIBP+aCSF+aCSF; (3) aCSF+isoleucyl thiazolidine+aCSF; (4) BIBP+isoleucyl thiazolidine+aCSF; (5) aCSF+aCSF+NPY; (6) BIBP+aCSF+NPY; (7) aCSF+P32/89+NPY; (8) BIBP+isoleucyl thiazolidine+NPY. […] The time spent in active social interaction (SI-time), 1h, and 12h food-intake were measured. […]
Social interaction (SI) test. […] Behavior was monitored using a video camera placed above the field inside the testing/isolation box. The SI behavior of both rats was recorded on-line from a monitor placed outside on top of the box. The following parameters were scored by an observer (HPN) unaware of the substrain of rats: duration of time spent in sniffing, following, crawling under and over other rats, but not passive body contact (resting, sleeping). […]
Statistical analysis. Data obtained from the measures SI time and 1h food intake were analyzed by one-way (factor: "treatment") ANOVA. […]

CCC(C)C(N)C(=O)N1CCSC1 (stereo not shown) [isoleucyl thiazolidine]
anxiolytic-like effect in the SI test (SI-time): acts not anxiolytic-like
